Series [1] has as its system ^3 H-flunitrazepam binding sites (benzodiazepine receptors BZ-1 and BZ-2) in rat cortex. As to the kind of experiment: ^3 H-flunitrazepam competition binding, rat cortex. The note with it: for difference in binding affinity for two BZ receptors (BZ-1 and BZ-2): vs ^3 H-flunitrazepam, average; for populations of binding sites distinguished: unlabeled drug vs ^3 H-flunitrazepam. The protocol: (§1) Male Spraque-Sawley rats (200 to 250 gms) from Charles River Breeding Laboratories, Mass., were used to obtain brain tissue. Animals were decapitated and their brains removed. Synaptic membranes were obtained following the procedure disclosed in Life Sc., 35, 105 (1984). Cerebral cortex and cerebellum were dissected on ice and homogenized in 20 volumes of ice cold 0.32 M sucrose using a glass homogenizer fitted with a teflon pestle. The homogenates were then centrifuged at 48,000 X g for 10 min, and the resultant P2 pellets were washed twice by re-centrifugation in 50 mM Na/K phosphate buffered saline (pH 7.4). The washed pellets were pooled and then resuspended in the same buffer to a final concentration of 50 mg of original tissue weight/ml.
(§2) Total reaction mixture volume was 1 ml which included: (a) 100 μl of either ^3 H-flunitrazepam or ^3 H-2-oxo-quazepam (tritiated at the α-carbon of the trifluoroethyl substituent located at the #1 position), yielding a final concentration of 0.5 nM (b) 100 μl of various concentrations of competing drugs dissolved or suspended in 50 mM phosphate buffered saline (pH 7.4) containing 4 mg/ml methylcellulose (c) 800 μl of tissue homogenate diluted such that a total of 5 mg of tissue was present in the final reaction mixture. In each competition experiment 25 to 30 concentrations of drug were used to obtain a complete dose response curve.
(§3) Incubations were carried out at 0° C. for 90 minutes. Samples were then filtered under vacuum through 25 mm diameter Whatman GF/B filters on a Millipore 1225 Sampling Manifold and quickly washed with 3×5 ml of ice-cold PBS buffer. Filter-bound radioactivity was quantified through liquid scintillation counting following overnight solubilization of the receptor-radioligand complex in "Scintosol" scintillation cocktail (Isolab, Inc.).
(§4) Compound assisted curve fitting was conducted on an Apple IIe computer using a program described in Br. J. Pharmacol., 80, 582P (1983) and Trends in Pharmaceutical Sci., 5, 47, (1984). Enhancements were made to the program to allow disk storage of data and printing of the program to allow disk storage of data and printing of the graphics display. The program determines whether the results from individual competition experiments are best interpreted on the basis of a 1 or 2 site model and also provides the most probable proportions of radioligand bound to each of the sites.
(§5) Selection among models was made by comparing the sum of squares residual values for the best single and 2-site models and determining through a partial F-test evaluation whether 2-site modelling produced a statistically meaningful (P<0.05) improvement in fit as described in Anal. Biochem., 107, 220 (1980). If not, the best single site model was considered the model of choice.

Series [2] deals with T1, ^3 H-flunitrazepam binding sites in rat cerebellum (BZ-1) (Rattus norvegicus, UniProt P18508+P62813).
T1 construct: Cerebral cortex and cerebellum were dissected on ice and homogenized; tissue Charles River Breeding Laboratories (rats); host or cells: rat cerebellum synaptic membranes (washed P2 pellet)
Briefly: ^3 H-flunitrazepam competition binding, rat cerebellum. The protocol: as §1, with “weight/ml. […]” for “weight/ml.”
Incubations were carried out at 0° C. for 90 minutes. […] Filter-bound radioactivity was quantified through liquid scintillation counting following overnight solubilization of the receptor-radioligand complex in "Scintosol" scintillation cocktail (Isolab, Inc.). […]

The target in series [3] is T2, ^3 H-2-oxo-quazepam binding sites (BZ-1 receptors) in rat cortex (Rattus norvegicus, UniProt P18508+P62813).
T2 construct: Cerebral cortex and cerebellum were dissected on ice and homogenized; tissue Charles River Breeding Laboratories (rats); host or cells: rat cerebral cortex synaptic membranes (washed P2 pellet)
Briefly: ^3 H-2-oxo-quazepam competition binding, rat cortex. The conditions noted are these: for best-fit curve model: vs ^3 H-2-oxo-quazepam 0.5 nM. As to the method:
as §1, §2, §3, §4, §5

In series [4] the target is T3, ^3 H-2-oxo-quazepam binding sites (BZ-1 receptors) in cerebellum (Rattus norvegicus, UniProt P18508+P62813).
T3 construct: Cerebral cortex and cerebellum were dissected on ice and homogenized; tissue Charles River Breeding Laboratories (rats); host or cells: rat cerebellum synaptic membranes (washed P2 pellet)
As to the kind of experiment: ^3 H-2-oxo-quazepam competition binding, cerebellum. As to the method:
as §1, §2, §3
Compound assisted curve fitting was conducted on an Apple IIe computer using a program described in Br. J. Pharmacol., 80, 582P (1983) and Trends in Pharmaceutical Sci., 5, 47, (1984). […]

Series [5] has as its target benzodiazepine sites (BZ-1 receptors) in rat cortex (Rattus norvegicus, UniProt P18508+P62813). Briefly: Saturation binding of ^3 H-2-oxo-quazepam in rat cortex. The note with it: for non-specific binding: 0.5 nM. The protocol: as §1
Saturation binding studies were conducted utilizing ^3 H-2-oxo-quazepamin rat cortex over a range of concentrations from 0.1 to 30 nM. The separation between specific and non-specific binding indicated the suitability of ^3 H-2-oxo-quazepam as a radioligand for benzodiazepine sites. Specific binding was defined as the difference between total binding and binding in the presence of 100 nM unlabeled clonazepam. At a concentration of 0.5 nM, non-specific binding for the radioligand constituted only 5 to 10 percent of total binding.

In series [6] the test system is benzodiazepine (BZ) receptors in brain. The note with it: literature; cited from earlier work.
The conditions of series [7]: doses far above tranquilizing doses; cited from earlier work.
For series [8] the following is noted: cats; doses below those that caused ataxia; cited from earlier work.

pIC50: −log10 of the molar value.

The term pIC50 denotes the IC50 on a negative log10 scale, so that one unit is a factor of ten.

`O=C1CN=C(c2ccccc2F)c2cc(Cl)ccc2N1CC(F)(F)F` [2-oxo-quazepam, 7-chloro-1-(2,2,2-trifluoroethyl)-5-(2-fluorophenyl)-1,3-dihydro-2H-1,4 benzodiazepine-2-one]: the “relative proportion of ^3 H-flunitrazepam binding sites, first-named subpopulation” value in series [1] (rat cortex) is 55%. Moreover, in series [1] (rat cortex), the “relative proportion of ^3 H-flunitrazepam binding sites, second-named subpopulation” value was found to be 45%. Moreover, the “difference in binding affinity for two BZ receptors (BZ-1 and BZ-2)” value in series [1] (rat cortex) is reported as 22 fold. The “populations of binding sites distinguished” value is given as “distinguished two subpopulations” in series [1] (rat cortex) and “did not distinguish subpopulations of binding sites” in series [2] (vs ^3 H-flunitrazepam, cerebellum). Also, the negative logarithm of the IC50 (pIC50) in series [1] (vs ^3 H-flunitrazepam 0.5 nM, cortex, 0° C., 90 minutes, read-out: IC50, high affinity component) was 8.03; in series [2], 8.06; in series [3] it was 7.77; in series [4] it was 7.87. Besides, the “relative potency vs quazepam” value amounted to 6 times in series [3] (cortex, vs ^3 H-2-oxo-quazepam) and 19 times in series [4] (cerebellum, vs ^3 H-2-oxo-quazepam). Besides, the “BZ-1 selectivity of binding” value in series [3] (low concentrations (0.5 nM)) was “binds BZ-1 receptors almost exclusively”. Further, in series [3], the best-fit curve model entry is “single site curve fitting model”. Also, the “potency in cortex compared with cerebellum” value in series [3] (vs ^3 H-2-oxo-quazepam, cortex and cerebellum) was “roughly equipotent”. For the same molecule, in series [5], the non-specific binding is less than 5%. In series [6], the “subpopulations of BZ receptors distinguished” value is listed as “distinguish two subpopulations of benzodiazepine (BZ) receptors”.
The molecule `[3H]C([3H])(N1C(=O)CN=C(c2ccccc2F)c2cc(Cl)ccc21)C(F)(F)F` [^3 H-2-oxo-quazepam, 7-Chloro-1-^3 H-(2,2,2-Trifluoroethyl)-5-(2-Fluorophenyl)-1,3-Dihydro-2H-1,4 Benzodiazepine-2-One] gave a non-specific binding in series [5] of 5 to 10%. Further, in series [5] (0.1 to 30 nM, even after saturation of BZ-1 receptors), the “non-specific binding vs concentration” value was “linear relationship with increasing concentration”.
Consider `CN1C(=O)CN=C(c2ccccc2F)c2cc([N+](=O)[O-])ccc21` [flunitrazepam, reference compound], for which, in series [1] (benzodiazepine receptors), the “receptor subtype specificity of binding” value was “binds non-specifically to benzodiazepine receptors”. Further, in series [1] (rat cortex), the “populations of binding sites distinguished” value was “only a single uniform population of sites”.
With `O=C1CN=C(c2ccccc2)c2cc(Cl)ccc2N1CC(F)(F)F` [halazepam], in series [7], the ataxic effects result is “only weak ataxic effects”.
Turning to `Fc1ccccc1C1=NCC(=S)N(CC(F)(F)F)c2ccc(Cl)cc21` [quazepam, 7-chloro-1-(2,2,2-trifluorethyl)-5-(2-fluorophenyl)-1,3-dihydro-2H-1,4 benzodiazpeine-2-thione, reference compound], in series [1] (rat cortex), the “difference in binding affinity for two BZ receptors (BZ-1 and BZ-2)” value turned out to be 54 fold; the “populations of binding sites distinguished” value was “distinguished two subpopulations”. In series [3], the pIC50 was 7.00 and the best-fit curve model result is recorded as “single site curve fitting model”. The pIC50 in series [4] was 6.59. In addition, in series [8], the behavioural effect result is “only drowsiness and sleep”.

Source of the values: patent US4997771A, “Method for measuring the BZ-1 receptor binding activity in a test sample or test compound” (Schering Corporation, priority 1987, dated 1991).
